From article PMC6014988, “Precision therapeutic targeting of human cancer cell motility” (Nature Communications, 2018)

Assays:
[1] = Three-day MTT cell growth inhibition assay, 1542NPTX; assay type: cell-based, human; settings: human, 1542NPTX cells
1542NPTX = assay: as above; assay type: cell-based, human; settings: Homo sapiens, 72 h, 3 days
PC3-luc cells = assay: Intracardiac injection PC3-luc bone metastasis model; assay type: in vivo, mouse
Excerpt: Fig. 3 KBU2046 inhibits bone destruction. a Treatment schema. Athymic mice were given intracardiac (IC) injections of PC3-luc cells on day 0 under ultrasound guidance, and underwent weekly IVIS imaging starting 7 days post injection. Cohorts of N = 20 control, N = 20 pre (treatment from 3 days prior to IC injection through end of the experiment), N = 10 Pre7Stop (treatment from 3 days prior to IC injection through 7 days post IC injection), and N = 10 post-treatment (treatment from 3 days post IC injection through end of the experiment) mice were dosed with 80 mg/kg KBU2046 daily by oral gavage and mock-treated with vehicle all other times. Whole-body (b) and mandible (c) flux are depicted, as determined from weekly IVIS imaging. d At week 4 post injection (i.e., at the end of the experiment), CT scans were performed on control, pre-, and post-treatment cohorts, and mandibular destruction quantified. e Representative images of pre and control mice are depicted. Arrows denote areas of bone destruction in controls, and corresponding areas in the pre mouse. Student’s t-test (b, c) and Fisher’s exact test (d) P values between the denoted cohorts are shown
Prostate cancer: intracardiac (IC) injection: IC injection of 4.0 × 10^5 PC3-Luc cells into male 6–8 week old athymic mice with IVIS imaging was performed as described, and was done so under ultrasound guidance (Supplementary Fig. 9). Mice were treated pre- and/or post-IC injection, as indicated. The pretreatment cohort emulates a metastasis naive model wherein cell motility is required in order for cells to invade into a distant organ, in this case, the jaw bone, for which this model is widely used. If KBU2046 were inhibiting cell motility, then in this model it would act to inhibit metastasis formation. In contrast, with the post-implantation cohort, cells have already completed invasion into the jaw bone, and distant metastasis have been established. […] IVIS imaging was performed 30 min after IC injection to confirm systemic distribution of cells, and thereafter weekly for 4 weeks starting 7 days post injection, allowing real-time tracking of metastasis development and growth. Computed tomograpgy (CT) (Inveon, Seimens) radiographic imaging was performed on some mice, as indicated, and resultant images analyzed in a blinded fashion using Inveon Research Workplace 4.2 visualization/analysis software and ImageJ. […] Experimental groups were randomly assigned to cages prior to the initiation of the study. CT images were analyzed in a blinded fashion to determine total bone loss using both the Invenon Research Workplace 4.2 visualization/analysis software and ImageJ. Specifically, to asses bone loss in an unbiased manner, an operator randomly loaded images into the system and blocked out identifying information prior to analysis by two separate blinded individuals.

CDC37 = molecular target: T1, CDC37 (Homo sapiens, UniProt Q16543); assay: Biophysical binding assays and DARTS, isolated CDC37; settings: ITC, thermal shift, biolayer interferometry, dynamic light scattering, DARTS
T1 construct: made in house; host or cells: BL-21 DE-3 E. coli
Experimental: Fluorescent thermal shift, isothermal titration calorimetry, and biolayer interferometry assays[46] were all performed as described by us using MEK4EE (37-399, S257E, T261E) cloned into pMCSG7 and KRX Competent E. coli cells (Promega Inc.) and above denoted full-length HSP90B and CDC37 vectors and Rosetta BL-21 and BL-21 DE-3 competent E. coli cells, respectively. DARTS assays were conducted as described, using equimolar amounts of CDC37 and HSP90β, thermolysin digestion, and silver stain visualization (ProteoSilver Silver Stain Kit, Sigma-Aldrich).
Supplementary Figure 14. […] Studies used purified […]
recombinant HSP90β or CDC37. Fluorescent thermal shift 5, isothermal titration calorimetry 6, […]
evidence of KBU2046 binding to either HSP90β or CDC37 (data not shown). For DARTS assay, HSP90β or CDC37 were individually pre-incubated with KBU2046, thermolysin added, and reaction products were separated by SDS PAGE and visualized by silver stain (depicted above).
NTco – no thermolysin control. However, when the DARTS assay was conducted with both HSP90β and CDC37 present, KBU2046 protected both proteins from degradation in a concentration-dependent manner (see manuscript Fig 5A).
(also on this page, place not known: HSP90 Ntco 0 0.001 0.01 0.1 1.0 10 µM KBU2046, thermolysin NTco thermolysin CDC37)
(1 picture or pasted object on this page, not shown here)

[2] = molecular target: T2, General transcription factor II-I (Homo sapiens, UniProt P78347); assay: ProtoArray binding, General transcription factor II-I; settings: 10 fold excess free KBU2046
T2 construct: purchased Invitrogen
Experimental: The ProtoArray® assay, using the Human Protein Microarray platform, was performed by Invitrogen. […]
(d) Protein array hybridization. KBU2046-biotin was hybridized to ProtoArray® Human Protein Microarray’s at 0.5 and 10 µM with and without 10 fold excess free KBU2046. We first sought proteins that met the following criteria, and did so at both 0.5 and 10 µM concentrations of KBU2046-biotin (in the absence of free KBU2046): Z-Score greater than 2.5, Z-Factor greater than 0.5, CI P-value less than 0.05, negative control value <2,000 (relative fluorescence units; RFUs), and a signal/negative control signal of >10 and >5 for 10 µM and 0.5 µM conditions, respectively. This yielded 3 proteins, shown in table, for an initial hit rate of 0.03%. We then required free KBU2046 to inhibit binding by >75%. […]
There were two additional notable findings from protein array studies. First, the positive control used in protein arrays was staurosporine. Staurosporine is similar to genistein in that both are small compound natural products that are broad spectrum kinase inhibitors. In contrast to the lack of binding by KBU2046-biotin, staurosporine bound to 214 proteins at levels that were >/= 10 fold above that of background. The vast majority of these proteins were kinases. Second, both HSP90β and CDC37 were present on the protein arrays, and were not bound by KBU2046-

[3] = pre-cohort, 80 mg/kg daily oral gavage

T2 sequence (P78347 whole entry): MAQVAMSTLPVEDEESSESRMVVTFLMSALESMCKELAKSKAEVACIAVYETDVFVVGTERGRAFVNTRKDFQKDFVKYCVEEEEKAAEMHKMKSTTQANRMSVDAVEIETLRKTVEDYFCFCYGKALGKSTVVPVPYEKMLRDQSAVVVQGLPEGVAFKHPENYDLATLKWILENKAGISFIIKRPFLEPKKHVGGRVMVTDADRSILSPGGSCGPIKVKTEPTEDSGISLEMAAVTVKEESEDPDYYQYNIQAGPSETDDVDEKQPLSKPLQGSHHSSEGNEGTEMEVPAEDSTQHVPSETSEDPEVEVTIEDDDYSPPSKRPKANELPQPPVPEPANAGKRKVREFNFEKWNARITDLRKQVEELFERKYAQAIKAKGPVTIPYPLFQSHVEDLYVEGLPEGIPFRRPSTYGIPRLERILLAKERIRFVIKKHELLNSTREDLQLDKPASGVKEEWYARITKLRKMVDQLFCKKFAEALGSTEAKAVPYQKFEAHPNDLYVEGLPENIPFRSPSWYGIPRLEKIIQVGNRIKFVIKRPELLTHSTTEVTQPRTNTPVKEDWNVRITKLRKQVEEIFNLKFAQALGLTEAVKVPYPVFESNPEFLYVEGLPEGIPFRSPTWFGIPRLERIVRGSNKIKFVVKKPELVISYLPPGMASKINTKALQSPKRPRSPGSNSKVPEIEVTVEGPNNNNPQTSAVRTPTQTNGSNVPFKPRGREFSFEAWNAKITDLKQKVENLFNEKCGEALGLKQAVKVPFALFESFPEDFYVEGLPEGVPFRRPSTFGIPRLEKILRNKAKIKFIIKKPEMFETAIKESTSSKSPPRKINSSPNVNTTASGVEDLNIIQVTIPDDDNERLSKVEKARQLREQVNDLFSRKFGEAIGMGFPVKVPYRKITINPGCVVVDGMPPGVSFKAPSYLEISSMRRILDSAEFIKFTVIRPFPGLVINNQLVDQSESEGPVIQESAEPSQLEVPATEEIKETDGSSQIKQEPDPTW
T1 sequence (Q16543 whole entry): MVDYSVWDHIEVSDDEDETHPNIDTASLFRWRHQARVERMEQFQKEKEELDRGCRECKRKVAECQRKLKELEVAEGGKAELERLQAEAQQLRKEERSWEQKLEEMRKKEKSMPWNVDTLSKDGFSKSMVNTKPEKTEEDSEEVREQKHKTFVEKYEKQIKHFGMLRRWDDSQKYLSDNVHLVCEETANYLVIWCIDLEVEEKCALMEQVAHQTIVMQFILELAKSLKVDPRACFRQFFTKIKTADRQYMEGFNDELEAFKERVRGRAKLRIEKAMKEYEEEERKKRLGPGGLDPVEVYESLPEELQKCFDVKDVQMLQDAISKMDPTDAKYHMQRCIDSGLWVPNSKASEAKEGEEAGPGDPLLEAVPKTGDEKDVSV

SMILES: O=C1c2ccccc2OCC1c1ccc(F)cc1 (racemic) [KBU2046, (±)-3(4-fluorophenyl)chroman-4-one]
- viability at 3 days, 50 µM [1]: 107%
- IC20 (1542NPTX): > 50 µM
- IC50 (1542NPTX): > 50 µM
- total body metastasis (PC3-luc cells; Pre7Stop cohort): total body metastasis is significantly decreased
- metastasis to the total body and jaw (PC3-luc cells; post-cohort, treatment from 3 days post IC injection): do not differ from control mice
- metastasis to the mandible (PC3-luc cells; [3]): decreased metastasis to the mandible
- total metastatic burden (PC3-luc cells; [3]): significant decrease in total metastatic burden
- destruction of bone (mandible, CT) (PC3-luc cells; pre-cohort, week 4): decreased destruction of bone
- binding to CDC37 (CDC37): no evidence of KBU2046 binding
- % inhibition by competitor ([2]; 0.5 uM KBU2046-biotin): 64%
- % inhibition by competitor ([2]; 10 uM KBU2046-biotin): 43%
